Test results from ChEMBL document CHEMBL1143708, “5-alkynyl analogs of arabinouridine and 2'-deoxyuridine: cytostatic activity against herpes simplex virus and varicella-zoster thymidine kinase gene-transfected cells” (J Med Chem, 2007).
Converted amounts (≈) assume the structure as drawn. The source made the active and inactive calls. The calls are words filed in the database; no cut-off is given here.

Legend:
[1] = Cytotoxicity against HEL cells; type: cell-based; conditions: human
Human betaherpesvirus 5 [2] = assay: Antiviral activity against HCMV Davis in HEL cells assessed as reduction of virus plaque formation; type: functional, organism-based; conditions: Human betaherpesvirus 5, Davis
Human betaherpesvirus 5 [3] = assay: Antiviral activity against HCMV AD169 in HEL cells assessed as reduction of virus plaque formation; type: functional, organism-based; conditions: Human betaherpesvirus 5, AD169, HEL
[4] = Inhibition of proliferation of VZV thymidine kinase expressing OSTtk-/VZVtk+ -a cells; type: functional; conditions: Homo sapiens
[5] = Inhibition of proliferation of VZV thymidine kinase expressing OSTtk-/VZVtk+ -b cells; type: functional; conditions: Homo sapiens
OST = assay: Inhibition of proliferation of thymidine kinase deficient OST cells; type: functional, cell-based; conditions: Homo sapiens
[6] = Cytotoxicity against E6SM cells assessed as alteration in cell morphology; type: cell-based; conditions: human
Human alphaherpesvirus 2 = assay: Antiviral activity against HSV2 G in E6SM cells assessed as reduction of virus-induced cytopathogenicity; type: functional, organism-based; conditions: Human alphaherpesvirus 2, G
Human alphaherpesvirus 1 [7] = assay: Antiviral activity against HSV1 KOS in E6SM cells assessed as reduction of virus-induced cytopathogenicity; type: functional, organism-based; conditions: Human alphaherpesvirus 1, KOS
Human alphaherpesvirus 1 [8] = assay: Antiviral activity against thymidine kinase-deficient HSV1 B2006 in E6SM cells assessed as reduction of virus-induced cytopathogenicity; type: functional, organism-based; conditions: Human alphaherpesvirus 1, B2006, E6SM
Human alphaherpesvirus 1 [9] = assay: Antiviral activity against thymidine kinase deficient HSV1 VMW1837 in E6SM cells assessed as reduction of virus-induced cytopathogenicity; type: functional, organism-based; conditions: Human alphaherpesvirus 1, VMW1837, E6SM
Human alphaherpesvirus 3 [10] = assay: Antiviral activity against TK+ VZV OKA in HEL cells assessed as reduction of virus plaque formation; type: functional, organism-based; conditions: Human alphaherpesvirus 3, OKA
Punta Toro virus [11] = assay: Antiviral activity against Punta Toro virus in vero cells assessed as reduction of virus-induced cytopathicity at 20 to >400 ug/mL; type: functional, organism-based
Human alphaherpesvirus 3 [12] = assay: Antiviral activity against thymidine kinase deficient VZV 07/1 in HEL cells assessed as reduction of virus plaque formation; type: functional, organism-based; conditions: Human alphaherpesvirus 3, 07/1, HEL
[13] = Inhibition of proliferation of mouse FM3A/O cells; type: functional, cell-based
Human alphaherpesvirus 3 [14] = assay: Antiviral activity against TK+ VZV YS in HEL cells assessed as reduction of virus plaque formation; type: functional, organism-based; conditions: Human alphaherpesvirus 3, YS
FM3A [15] = assay: Inhibition of proliferation of thymidine kinase deficient mouse FM3A cells expressing HSV1 thymidine kinase; type: functional, cell-based
[16] = Cytotoxicity against HEL cells assessed as alteration in cell morphology; type: cell-based; conditions: human
[17] = tested on: Mammalian orthoreovirus 1; assay: Antiviral activity against Reovirus1 in vero cells assessed as reduction of virus-induced cytopathicity at 40 to >400 ug/mL; type: functional, organism-based
Human alphaherpesvirus 3 [18] = assay: Antiviral activity against thymidine kinase deficient VZV YS in HEL cells assessed as reduction of virus plaque formation; type: functional, organism-based; conditions: Human alphaherpesvirus 3, YS
Human respirovirus 3 = assay: Antiviral activity against Parainfluenza 3 virus in vero cells assessed as reduction of virus-induced cytopathicity at 20 to >400 ug/mL; type: functional, organism-based
Coxsackievirus B4 [19] = assay: Antiviral activity against Coxsackie virus B4 in HeLa cells at 40 to >400 ug/mL; type: functional, organism-based
FM3A [20] = assay: Inhibition of proliferation of thymidine kinase deficient mouse FM3A cells; type: functional, cell-based
Sindbis virus = assay: Antiviral activity against Sindbis virus in vero cells assessed as reduction of virus-induced cytopathicity at 40 to >400 ug/mL; type: functional, organism-based
[21] = tested on: Vesicular stomatitis virus; assay: Antiviral activity against VSV in HeLa cells at 40 to >400 ug/mL; type: functional, organism-based
[22] = tested on: Respiratory syncytial virus; assay: Antiviral activity against Respiratory syncytial virus in HeLa cells at 40 to >400 ug/mL; type: functional, organism-based
FM3A [23] = assay: Inhibition of proliferation of thymidine kinase deficient mouse FM3A cells expressing HSV2 thymidine kinase; type: functional, cell-based
[24] = tested on: Respiratory syncytial virus; assay: Antiviral activity against Respiratory syncytial virus in HeLa cells; type: functional, organism-based; conditions: human respiratory syncytial virus
[25] = tested on: Mammalian orthoreovirus 1; assay: Antiviral activity against Reovirus1 in vero cells; type: functional, organism-based; conditions: Mammalian orthoreovirus 1, Vero
[26] = tested on: Vesicular stomatitis virus; assay: Antiviral activity against VSV in HeLa cells; type: functional, organism-based
Coxsackievirus B4 [27] = assay: Antiviral activity against Coxsackie virus B4 in HeLa cells; type: functional, organism-based; conditions: Enterovirus B
Punta Toro virus [28] = assay: Antiviral activity against Punta Toro virus in vero cells; type: functional, organism-based
Human alphaherpesvirus 3 [29] = assay: Antiviral activity against thymidine kinase deficient VZV YS/R in HEL cells assessed as reduction of virus plaque formation; type: functional, organism-based; conditions: Human alphaherpesvirus 3, YS/R

| Compound | CC50 [1] | EC50 (Human betaherpesvirus 5 [2]) | EC50 (Human betaherpesvirus 5 [3]) | IC50 [4] | IC50 [5] | IC50 (OST) | MCC [6] | EC50 (Human alphaherpesvirus 2) | EC50 (Human alphaherpesvirus 1 [7]) | EC50 (Human alphaherpesvirus 1 [8]) | EC50 (Human alphaherpesvirus 1 [9]) | EC50 (Human alphaherpesvirus 3 [10]) | Activity (Punta Toro virus [11]) | EC50 (Human alphaherpesvirus 3 [12]) | IC50 [13] | EC50 (Human alphaherpesvirus 3 [14]) | IC50 (FM3A [15]) | MCC [16] | Activity [17] | Activity (Human respirovirus 3) | further results |
| --- | --- | --- | --- | --- | --- | --- | --- | --- | --- | --- | --- | --- | --- | --- | --- | --- | --- | --- | --- | --- | --- |
| Nc1ccn(C[C@@H](CO)OCP(=O)(O)O)c(=O)n1 [CIDOFOVIR] | 121000 nM | 660 nM | 660 nM | – | – | – | – | – | – | – | – | – | – | – | – | – | – | – | – | – | – |
| O=c1[nH]c(=O)n([C@@H]2O[C@H](CO)[C@@H](O)C2O)cc1/C=C/Br (single isomer, unassigned) [SORIVUDINE] | – | – | – | 150 nM | 200 nM | ≥ 250000 nM | – | – | – | – | – | – | – | – | – | – | – | – | – | – | – |
| O=c1[nH]c(=O)n([C@H]2C[C@H](O)[C@@H](CO)O2)cc1/C=C/Br [BRIVUDINE] | – | – | – | 600 nM | 350 nM | ≥ 250000 nM | ≥ 400 µg/mL | 150 µg/mL (≈ 450 µM) | 0.02 µg/mL (≈ 0.06 µM) | 40 µg/mL (≈ 120 µM) | 40 µg/mL (≈ 120 µM) | – | – | – | – | – | – | – | – | – | – |
| C#Cc1cn([C@H]2C[C@H](O)[C@@H](CO)O2)c(=O)[nH]c1=O | 2500 nM | 850 nM | 1200 nM | 83 nM | 160 nM | 23000 nM | > 400 µg/mL | 2 µg/mL (≈ 7.93 µM) | 0.7 µg/mL (≈ 2.78 µM) | 0.7 µg/mL (≈ 2.78 µM) | 4 µg/mL (≈ 15.9 µM) | 160 nM | inactive | 810 nM | 180 nM | 110 nM | 130 nM | > 200 µM | inactive | inactive | EC50 (Human alphaherpesvirus 3 [18]): 750 nM; Activity (Coxsackievirus B4 [19]): inactive; IC50 (FM3A [20]): ≥ 250000 nM; Activity (Sindbis virus): inactive; Activity [21]: inactive; Activity [22]: inactive; IC50 (FM3A [23]): 390 nM |
| O=c1[nH]c(=O)n([C@H]2C[C@H](O)[C@@H](CO)O2)cc1C#CI | 760 nM | 580 nM | 2500 nM | 63 nM | 120 nM | 34000 nM | ≥ 100 µg/mL | 7 µg/mL (≈ 18.5 µM) | 2 µg/mL (≈ 5.29 µM) | 2 µg/mL (≈ 5.29 µM) | 7 µg/mL (≈ 18.5 µM) | 180 nM | inactive | 890 nM | 300 nM | 110 nM | 160 nM | 200 µM | inactive | inactive | EC50 (Human alphaherpesvirus 3 [18]): 780 nM; Activity (Coxsackievirus B4 [19]): inactive; IC50 (FM3A [20]): 87000 nM; Activity (Sindbis virus): inactive; Activity [21]: inactive; Activity [22]: inactive; IC50 (FM3A [23]): 350 nM |
| Nc1nc2c(ncn2COC(CO)CO)c(=O)[nH]1 [GANCICLOVIR] | – | – | 6300 nM | – | – | – | > 100 µg/mL | 0.007 µg/mL (≈ 0.0274 µM) | 0.002 µg/mL (≈ 0.00784 µM) | 0.7 µg/mL (≈ 2.74 µM) | 0.02 µg/mL (≈ 0.0784 µM) | – | – | – | – | – | – | > 200 µM | – | – | – |
| CC(=O)OC[C@H]1O[C@@H](n2cc(C#CI)c(=O)[nH]c2=O)[C@@H](OC(C)=O)[C@@H]1OC(C)=O | 20000 nM | > 20000 nM | > 20000 nM | 3600 nM | 3900 nM | 5400 nM | 40 µg/mL | 7 µg/mL (≈ 13.5 µM) | 20 µg/mL (≈ 38.4 µM) | > 10 µg/mL | > 10 µg/mL | 8500 nM | inactive | > 20000 nM | 18000 nM | 3100 nM | 5400 nM | 50 µM | inactive | inactive | EC50 (Human alphaherpesvirus 3 [18]): > 20000 nM; Activity (Coxsackievirus B4 [19]): inactive; IC50 (FM3A [20]): 20000 nM; Activity (Sindbis virus): inactive; Activity [21]: inactive; Activity [22]: inactive; IC50 (FM3A [23]): 960 nM |
| C[Si](C)(C)C#Cc1cn([C@H]2C[C@H](O)[C@@H](CO)O2)c(=O)[nH]c1=O | 180 nM | 750 nM | 1200 nM | 41 nM | 200 nM | 23000 nM | > 400 µg/mL | 7 µg/mL (≈ 21.6 µM) | 2 µg/mL (≈ 6.17 µM) | 4 µg/mL (≈ 12.3 µM) | 7 µg/mL (≈ 21.6 µM) | 260 nM | inactive | 690 nM | 230 nM | 150 nM | 160 nM | 200 µM | inactive | inactive | EC50 (Human alphaherpesvirus 3 [18]): 900 nM; Activity (Coxsackievirus B4 [19]): inactive; IC50 (FM3A [20]): ≥ 250000 nM; Activity (Sindbis virus): inactive; Activity [21]: inactive; Activity [22]: inactive; IC50 (FM3A [23]): 480 nM |
| C#Cc1cn([C@@H]2O[C@H](CO)[C@@H](O)[C@@H]2O)c(=O)[nH]c1=O | – | – | – | – | – | – | 400 µg/mL | – | – | – | – | – | – | – | – | – | – | 200 µM | – | – | – |
| Nc1nc2c(ncn2COCCO)c(=O)[nH]1 [ACYCLOVIR] | – | – | – | – | – | – | > 400 µg/mL | 0.07 µg/mL (≈ 0.311 µM) | 0.02 µg/mL (≈ 0.0888 µM) | 40 µg/mL (≈ 178 µM) | 7 µg/mL (≈ 31.1 µM) | – | – | – | – | – | – | – | – | – | – |
| NC(=O)c1ncn([C@@H]2O[C@H](CO)[C@@H](O)[C@H]2O)n1 [RIBAVIRIN] | – | – | – | – | – | – | 400 µg/mL | 150 µg/mL (≈ 614 µM) | 70 µg/mL (≈ 287 µM) | 20 µg/mL (≈ 81.9 µM) | 70 µg/mL (≈ 287 µM) | – | – | – | – | – | – | – | – | – | IC50 [24]: 2 µg/mL (≈ 8.19 µM); IC50 [25]: 0.7 µg/mL (≈ 2.87 µM); IC50 [26]: 20 µg/mL (≈ 81.9 µM); IC50 (Coxsackievirus B4 [27]): 20 µg/mL (≈ 81.9 µM); IC50 (Punta Toro virus [28]): 20 µg/mL (≈ 81.9 µM) |
| C[Si](C)(C)C#Cc1cn([C@@H]2O[C@H](CO)[C@@H](O)[C@@H]2O)c(=O)[nH]c1=O | 127000 nM | > 50000 nM | > 50000 nM | 750 nM | 1900 nM | ≥ 176000 nM | 400 µg/mL | 2 µg/mL (≈ 5.88 µM) | 0.7 µg/mL (≈ 2.06 µM) | 150 µg/mL (≈ 441 µM) | 150 µg/mL (≈ 441 µM) | 480 nM | inactive | > 50000 nM | ≥ 250000 nM | 330 nM | 3800 nM | 200 µM | inactive | inactive | Activity (Coxsackievirus B4 [19]): inactive; IC50 (FM3A [20]): ≥ 250000 nM; Activity (Sindbis virus): inactive; Activity [21]: inactive; EC50 (Human alphaherpesvirus 3 [29]): > 50000 nM; Activity [22]: inactive; IC50 (FM3A [23]): 290 nM |
